Laboratory results as given in patent US20100168038A1, “USE OF COMPOUNDS IN COMBINATION WITH GAMMA-IRRADIATION FOR THE TREATMENT OF CANCER” (priority 2006, published 2010).

Key:
Format in all cases: cell-based, mouse
TPPII = test: Western blotting of TPPII expression in gamma-irradiated EL-4 cells; conditions: wortmannin treated gamma-irradiated EL-4 cells, 25 micro-M NLVS
Excerpt: (§1) Cells and Culture Conditions. EL-4 is a Benzpyrene-induced lymphoma cell line derived from the C57BI/6 mouse strain. EL-4.wt and EL-4.TPPII^i are EL-4 cells transfected with the pSUPER vector (Brummelkamp, T R, Bernards, R, Agami, R. A system for stable expression of short interfering RNAs in mammalian cells. Science 2002; 296:550-3), empty versus containing the siRNA directed against TPPII. HeLa cells are human cervical carcinoma cells. YAC-1 is a Moloney Leukemia Virus-induced lymphoma cell line derived from the A/Sn mouse strain. ALC is a T cell lymphoma induced by radiation leukemia virus D-RadLV, derived from the C57Bl/6 mouse strain. […]
(§2) Antibodies and Antisera. The following molecules were detected by the antibodies specified: Akt by rabbit anti-Akt serum (Cell Signaling Technology, Beverly, Mass.); Phospho-Akt (Ser 473) by 193H2 rabbit anti-phospho-Akt serum (Cell Signaling Technology, Beverly, Mass.); gamma-H2AX by rabbit anti-gamma-H2AX (Cell Signalling Technology, Beverly, Mass.); Mre11 by polyclonal rabbit anti-human Mre11 (Cell Signalling Technology, Beverly, Mass.); p21 by SX118 (R & D Systems, Minneapolis, Minn.); p53 (R & D Systems, Minneapolis, Minn.); Rae-1 by monoclonal Rat anti-mouse Rae-1, 199215 (R &D Systems, Minneapolis, Minn.); XIAP by monoclonal mouse anti-human XIAP, 117320 (R&D Systems, Minneapolis, Minn.). […]

p53 [1] = test: Western blotting of p53 expression in gamma-irradiated EL-4.TPPIIi cells; conditions: gamma-irradiated EL-4.TPPIIi cells treated with NLVS
Excerpt: as §1, §2

p53 [2] = test: Western blotting of p53-immunoprecipitates from EL-4 cell lysates; conditions: NLVS-treated EL-4.TPPIIi cells
Excerpt: Antibodies and Antisera. The following molecules were detected by the antibodies specified: Akt by rabbit anti-Akt serum (Cell Signaling Technology, Beverly, Mass.); Phospho-Akt (Ser 473) by 193H2 rabbit anti-phospho-Akt serum (Cell Signaling Technology, Beverly, Mass.); gamma-H2AX by rabbit anti-gamma-H2AX (Cell Signalling Technology, Beverly, Mass.); Mre11 by polyclonal rabbit anti-human Mre11 (Cell Signalling Technology, Beverly, Mass.); p21 by SX118 (R & D Systems, Minneapolis, Minn.); p53 (R & D Systems, Minneapolis, Minn.); Rae-1 by monoclonal Rat anti-mouse Rae-1, 199215 (R &D Systems, Minneapolis, Minn.); XIAP by monoclonal mouse anti-human XIAP, 117320 (R&D Systems, Minneapolis, Minn.). For detection of TPPII we used chicken anti-TPPII serum (Immunsystem, Uppsala, Sweden). Western blotting was performed by standard techniques. Protein concentration was measured by BCA Protein Assay Reagent (Pierce Chemical Co.). 5 micro-g of protein was loaded per lane for separation by SDS/PAGE unless stated otherwise.

CC(C)C[C@@H](/C=C/S(C)(=O)=O)NC(=O)[C@H](CC(C)C)NC(=O)[C@H](CC(C)C)NC(=O)Cc1cc(I)c(O)c([N+](=O)[O-])c1 [NLVS, 4-hydroxy-5-iodo-3-nitrophenylacetyl-Leu-Leu-Leu-vinyl sulphone] was tested, and the “down regulation of TPPII” value (TPPII) was “inhibited down regulation of TPPII”, the p53 expression (p53 [1]) was “increased p53 expression” and the “ATM, 53BP1 and Mre11 in p53-immunoprecipitates” value (p53 [2]) was “failed to show ATM, 53BP1 and Mre11”.
